From patent US20190110476A1, “NOVEL ISOTHIAZOLAMIDES, PROCESSES FOR THEIR PREPARATION AND THEIR USE AS FUNGICIDES” (priority 2014, published 2019)
Marks after values point to notes of the source that are not given here.

Assay: Measurement of LogP values by HPLC on reversed phase columns (EEC directive 79/831 Annex V.A8)
Type: physicochemical
Conditions: not given
Procedure, shortened: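 LogP measured by reversed-phase HPLC following EEC directive 79/831 Annex V.A8. Lambda-max taken from UV spectra at 200–400 nm at chromatographic peak maxima; diastereoisomer values listed separately.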

| LogP | LogP [a] | LogP [b] | Compound |
| --- | --- | --- | --- |
| 3.10[a] | – | – | C[C@H]1[C@H](CNC(=O)c2snc(N)c2Cl)CCC[C@H]1C (relative stereo) [I-1291] |
| 3.59[a] | – | – | COc1ccc(CNc2nsc(C(=O)NCc3cc(OC)ccc3OC)c2Cl)cc1 [I-1230] |
| – | 4.77^[a] | – | O=C(NCC1CCCCC1)c1snc(N=S(c2ccccc2)c2ccccc2)c1Cl [II-092] |
| 4.21[a] | – | – | COc1ccc(CNc2nsc(C(=O)Nc3ccc(Cl)cc3)c2Cl)cc1 [I-868] |
| 3.48[a] | – | – | CC1(C)CC1N(Cc1ccc(Cl)cc1Cl)C(=O)c1cc(N)ns1 (stereo not drawn) [I-969] |
| – | 1.66^[a] | – | O=C(NCc1c(F)cc(F)cc1F)c1snc(N=S2CCCC2)c1Cl [II-044] |
| 1.07[a] | – | – | CC(C)CNC(=O)c1cc(N)ns1 [I-985] |
| 1.75[a] | – | – | Nc1cc(C(=O)NCc2ccc(Cl)cc2)sn1 [I-028] |
| 2.73[a] | – | – | Nc1nsc(C(=S)NCc2ccccc2F)c1Cl [I-1021] |
| 0.36[a] | – | – | Nc1cc(C(=O)NCC2CCC(O)C2)sn1 (stereo not drawn) [I-775] |
| 2.28[a] | – | – | Cc1cc(F)ccc1CNC(=O)c1snc(NC(=O)C(F)F)c1Cl [I-809] |
| 0.92[a] | – | – | Nc1nsc(C(=O)NCc2cncc(F)c2)c1Cl [I-037] |
| 1.92[a] | – | – | CCOC(=O)C1CCC(NC(=O)c2snc(N)c2Cl)CC1 (stereo not drawn) [I-843] |
| 2.46[a] | – | – | CC(NC(=O)c1snc(N)c1Cl)c1ccccc1Cl (stereo not drawn) [I-142] |
| 5.36[a] | – | – | O=C(c1cc(N(Cc2ccccc2)Cc2ccccc2)ns1)N(Cc1ccccc1)C1CC1 [I-910] |
| 2.80[a] | – | – | COc1ccc(CNc2nsc(C(=O)NC3CCOCC3C)c2Cl)cc1 (stereo not drawn) [I-1336] |
| 4.46[a] | – | – | COc1ccc(CNc2nsc(C(=O)N(Cc3cc(C)ccc3F)C3CC3)c2Cl)cc1 [I-986] |
| 4.12[a] | – | – | CC1(C)CC1N(Cc1ccc(Cl)cc1Cl)C(=O)c1snc(N)c1Cl (stereo not drawn) [I-214] |
| 1.07[a] | – | – | Nc1nsc(C(=O)NCC2CCCOC2)c1Cl (stereo not drawn) [I-010] |
| 5.39[a] | – | – | COc1ccc(CNc2nsc(C(=O)N(Cc3ccc(Cl)cc3Cl)C(C)C)c2Cl)cc1 [I-944] |
| 2.66[a] | – | – | CC1(C)CCCCC1NC(=O)c1snc(N)c1Cl (stereo not drawn) [I-082] |
| 2.27[a] | – | – | Cc1cccc(NC(=O)c2snc(N)c2Cl)c1C [I-925] |
| 5.03[a] | – | – | O=C(NCCc1ncc(C(F)(F)F)cc1Cl)c1cc(N(Cc2ccccc2)Cc2ccccc2)ns1 [I-904] |
| 2.09[a] | – | – | Nc1nsc(C(=O)NCc2ccc(F)c(F)c2F)c1Cl [I-121] |

| LogP | LogP [a] | LogP [b] | Compound |
| --- | --- | --- | --- |
| 2.84[a] | – | – | CC(NC(=O)c1snc(N)c1Cl)C1CCCCC1 (stereo not drawn) [I-1569] |
| 6.06[a] | – | – | O=C(NCc1ncc(C(F)(F)F)cc1Cl)c1snc(N(Cc2ccccc2)Cc2ccccc2)c1Br [I-200] |
| 4.55[a] | – | – | Nc1cc(C(=O)NCc2cc(F)cc(F)c2)sn1 [I-303] |
| 3.64[a] | – | – | C[C@H](NC(=O)c1snc(NC(=O)c2ccccc2)c1Cl)C1CCCCC1 [I-091] |
| 2.73[a] | – | – | C[C@H]1CCCC[C@H]1CNC(=O)c1snc(N)c1I (relative stereo) [I-1540] |
| 3.15[a] | – | – | Cc1ccc(C(C)C)c(CNC(=O)c2snc(N)c2Cl)c1 [I-415] |
| 2.09[a] | – | – | CCOc1c(N)nsc1C(=O)NCc1c(F)cc(F)cc1F [I-724] |
| 1.66[a] | – | – | Nc1nsc(C(=O)NCC2CCC(F)(F)CC2)c1F [I-1297] |
| 2.08[a] | – | – | Cc1ccccc1NC(=O)c1snc(N)c1Cl [I-914] |
| – | 4.03 | 3.95 | COC(=O)CC(NC(=O)c1snc(Cl)c1Cl)C1CCCCC1 (stereo not drawn) [E-II-030] |
| 4.18[a] | – | – | COc1ccc(CNc2nsc(C(=O)N[C@@H]3CCCC[C@@H]3C)c2Cl)cc1 (relative stereo) [I-1550] |
| 2.78[a] | – | – | C[C@@H](NC(=O)c1snc(N)c1Cl)C1CCCCC1 [I-077] |
| 4.37[a] | – | – | COc1ccc(CNc2nsc(C(=O)NCc3cc(C(F)(F)F)ccc3Cl)c2Cl)cc1 [I-1246] |
| – | 4.14 | 4.09 | COc1ccc(CNc2nsc(C(=O)N3c4ccccc4CCC3C)c2Cl)cc1 (stereo not drawn) [II-100] |
| 2.15[a] | – | – | Nc1nsc(C(=O)NCC2(F)CCCCC2)c1Br [I-828] |
| 2.18[a] | – | – | Cc1ccc(CNC(=O)c2snc(N)c2Cl)c(F)c1 [I-164] |
| 3.41[a] | – | – | COc1ccc(CNc2nsc(C(=O)NCc3cccc(OC)n3)c2Cl)cc1 [I-1319] |
| 2.12[a] | – | – | Nc1nsc(C(=O)N[C@@H]2CCCC[C@H]2Cl)c1I (relative stereo) [I-1565] |
| 2.16[a] | – | – | Nc1nsc(C(=O)NCC2CCCCC2Cl)c1F (stereo not drawn) [I-1536] |
| 4.36[a] | – | – | O=C(NCc1ccc(F)cc1)c1cc(N(Cc2ccccc2)Cc2ccccc2)ns1 [I-309] |
| – | 3.10^[a] | – | Cc1ccc(S(C)=Nc2nsc(C(=O)NCC3CCCCC3)c2F)cc1 (stereo not drawn) [II-054] |
| 2.53[a] | – | – | Nc1nsc(C(=O)NCC23CCC(CC2)C3)c1Cl [I-822] |
| 6.27[a] | – | – | O=C(NCC1CCCCC1)c1snc(N(Cc2ccccc2)Cc2ccccc2)c1-c1ccc(F)cc1 [I-318] |
| – | 2.48^[a] | – | CCOC(=O)c1snc(NC(=O)C(C)(C)C)c1Cl [E-VII-018] |

| LogP | LogP [a] | LogP [b] | Compound |
| --- | --- | --- | --- |
| – | 4.40^[a] | – | COC(=O)c1snc(N=C(c2ccccc2)c2ccccc2)c1Cl [E-VII-006] |
| 4.37[a] | – | – | COc1ccc(CNc2nsc(C(=O)NCc3csc4ccc(Cl)cc34)c2Cl)cc1 [I-1340] |
| 3.09[a] | – | – | CCn1cc(CNC(=O)c2snc(NCc3ccc(OC)cc3)c2Cl)c(C(F)F)n1 [I-1198] |
| – | 3.68^[a] | – | COc1ccc(CNc2nsc(C(=O)N3CCc4ccccc4C3)c2Cl)cc1 [II-064] |
| – | 4.56 | 4.51 | COc1ccc(CNc2nsc(C(=O)OC(C)C)c2NCc2ccc(OC)cc2)cc1 [E-VII-063] |
| – | 4.62^[a] | – | O=C(Nc1ccccc1)c1snc(N=C(c2ccccc2)c2ccccc2)c1Cl [II-107] |
| 4.01[a] | – | – | COc1ccc(CNc2nsc(C(=O)NCc3ccc(Br)cc3)c2Cl)cc1 [I-366] |
| 3.31[a] | – | – | COc1ccc(CNc2nsc(C(=O)NCc3cccs3)c2Cl)cc1 [I-1241] |
| 5.68[a] | – | – | Cc1ccc(NC(=O)c2cc(N(Cc3ccccc3)Cc3ccccc3)ns2)cc1Cl [I-906] |
| 1.27[a] | – | – | Cc1nonc1NC(=O)c1snc(N)c1Cl [I-1361] |
| 1.42[a] | – | – | COc1ccc(CNC(=O)c2snc(N)c2C)cc1 [I-049] |
| 1.31[a] | – | – | Nc1nsc(C(=O)NCc2ccc(Cl)nc2)c1Cl [I-122] |
| 2.56[a] | – | – | COc1ccc(CNc2nsc(C(=O)NC(C)C3=NOCC3)c2Cl)cc1 (stereo not drawn) [I-1337] |
| 1.32[a] | – | – | Nc1cc(C(=O)NCc2ccccc2)sn1 [I-008] |
| 4.15[a] | – | – | COc1ccc(CNc2nsc(C(=O)NCc3ccc(OC(F)(F)F)cc3)c2Cl)cc1 [I-1242] |
| – | 2.21^[a] | – | O=C(NCC1CCC(C(=O)NC2CC2)CC1)c1snc(Cl)c1Cl (stereo not drawn) [E-II-016] |
| 3.04[a] | – | – | Cc1ccc(C)c(CN(C(=O)c2snc(N)c2Cl)C2CC2)c1 [I-119] |
| 3.61[a] | – | – | COc1ccc(CNc2nsc(C(=O)NC(C)c3ccsc3)c2Cl)cc1 (stereo not drawn) [I-1261] |
| – | 3.83^[a] | – | O=C(O)c1snc(N(Cc2ccccc2)Cc2ccccc2)c1Br [E-VIII-004] |
| 1.69[a] | – | – | Nc1cc(C(=O)NCc2ccccc2Cl)sn1 [I-282] |
| 4.69[a] | – | – | COc1ccc(CNc2nsc(C(=O)NC3CCCCC3c3ccccc3)c2Cl)cc1 (stereo not drawn) [I-267] |
| 4.20[a] | – | – | COc1ccc(CNc2nsc(C(=O)NCC3CCCCC3)c2Cl)cc1 [I-098] |
| 3.17[a] | – | – | CC1CCC(C)(CNC(=O)c2snc(N)c2Cl)CC1 (stereo not drawn) [I-835] |
| 4.49[a] | – | – | CCC1CCCCC1NC(=O)c1snc(NCc2ccc(OC)cc2)c1Cl (stereo not drawn) [I-1215] |

| LogP | LogP [a] | LogP [b] | Compound |
| --- | --- | --- | --- |
| 4.06[a] | – | – | O=C(c1cc(NCc2ccccc2)ns1)N(Cc1cc(Cl)ccc1F)C1CC1 [I-1000] |
| – | 1.96^[a] | – | CCCS(CC)=Nc1nsc(C(=O)NCc2ccc(F)c(F)c2F)c1F (stereo not drawn) [II-104] |
| – | 1.43^[a] | – | CS(C)=Nc1nsc(C(=O)NCc2cc(F)c(F)cc2F)c1F [II-072] |
| 3.13[a] | – | – | CC(c1ccccc1C(F)(F)F)N(C(=O)c1snc(N)c1Cl)C1CC1 (stereo not drawn) [I-957] |
| – | 2.48 | 2.39 | CC1CCc2ccccc2N1C(=O)c1snc(N)c1Cl (stereo not drawn) [II-101] |
| 0.83[a] | – | – | Cc1ccnc(CNC(=O)c2snc(N)c2Cl)n1 [I-039] |
| 2.09[a] | – | – | Cc1cc(F)ccc1CNC(=O)c1snc(N)c1Cl [I-784] |
| 1.41[a] | – | – | Nc1cc(C(=O)NCc2ccccc2F)sn1 [I-305] |
| – | 1.38^[a] | – | CS(C)=Nc1nsc(C(=O)NCc2ccc(F)cc2F)c1Cl [II-041] |
| 2.02[a] | – | – | Nc1cc(C(=O)N(Cc2ccccc2)C2CC2)sn1 [I-978] |
| 3.96[a] | – | – | C#CCOC(=O)N(C(=O)OCC#C)c1nsc(C(=O)N[C@@H](C)C2CCCCC2)c1Cl [I-135] |
| 2.10[a] | – | – | Nc1nsc(C(=O)NC2CCCCC2)c1Cl [I-001] |
| 3.96[a] | – | – | COc1ccc(CNc2nsc(C(=O)Nc3cccc4c3C(C)OC4(C)C)c2Cl)cc1 (stereo not drawn) [I-869] |
| 4.77[a] | – | – | COc1ccc(CNc2nsc(C(=O)N(Cc3cc(C)ccc3C)C3CC3)c2Cl)cc1 [I-876] |
| 2.50[a] | – | – | CON(Cc1ccc(F)cc1F)C(=O)c1snc(N)c1Cl [I-542] |
| – | 1.53^[a] | – | CS(C)=Nc1nsc(C(=O)NCC2CCCCC2)c1F [II-053] |
| 2.97[a] | – | – | O=C(Nc1nsc(C(=O)NCc2ccc(Cl)cc2)c1Cl)c1ccccc1 [I-569] |
| – | 1.42^[a] | – | CS(C)=Nc1nsc(C(=O)NCc2c(F)cc(F)cc2F)c1Cl [II-043] |
| 5.72[a] | – | – | O=C(NCc1ccc(Cl)cc1)c1snc(N(Cc2ccccc2)Cc2ccccc2)c1-c1ccc(F)cc1 [I-321] |
| 2.66[a] | – | – | Nc1nsc(C(=O)NCC2CCCC(C(F)(F)F)C2)c1Cl (stereo not drawn) [I-139] |
| 4.01[a] | – | – | Cc1ccc(F)c(CN(C(=O)c2cc(NCc3ccccc3)ns2)C2CC2)c1 [I-996] |

| Compound | LogP | LogP [a] | LogP [b] |
| --- | --- | --- | --- |
| CS(C)=Nc1nsc(C(=O)NCC2CCCO2)c1F (stereo not drawn) [II-070] | – | 0.44^[a] | – |

Same assay, conditions: HPLC LC-UV, acidic range, 0.1% formic acid in water and acetonitrile as eluent

| Compound | chromatographic logP |
| --- | --- |
| O=C(NCC1CCCCC1)c1snc(Cl)c1Cl [E-II-001, 3,4-dichloro-N-(cyclohexylmethyl)isothiazole-5-carboxamide] | 4.11 |
